From patent publication US8735620B2, “Processes for preparing (E)-styrylbenzylsulfone compounds and uses thereof for treating proliferative disorders” (priority 2008, dated 2014)

Key:
[1] = tested on: DU145 (human prostate tumor cell line); assay: Cytotoxicity assay (trypan blue exclusion, 96 h), DU145; assay type: cell-based; conditions: DU145, 96 h treatment; read-out: DU145 IC50
Excerpt: (§2) Tissue Culture and Reagents: Paclitaxel was purchased from Sigma. Cell lines were purchased from ATCC. Cell lines were routinely grown in DMEM or RPM1 (CellGro) supplemented with 10% fetal bovine serum (Atlas) and 1 unit/mL penicillin-streptomycin (Gibco).

BT20 = assay: Soft agar colony formation, BT20; assay type: cell-based, human; conditions: BT20, dose dependent
[2] = tested on: H157 (human lung tumor cell line); assay: Cytotoxicity assay (trypan blue exclusion, 96 h), H157; assay type: cell-based; conditions: H157, 96 h treatment; read-out: H157 IC50
Excerpt: as §2

MIA-PaCa-2 cells = assay: Soft agar colony formation, MIA-PaCa-2; assay type: cell-based, human
Method: (§1) FIG. 1 Anti-tumor effects of (E)-2,4,6-Trimethoxystyryl-3-Hydroxy-4-Methoxybenzyl Sulfone (6aa). A. 6aa inhibits the growth of parental (MES-SA) and Paclitaxel resistant (MES-SA/DX5) cell lines with equal efficiency. The parental uterine sarcoma cells and the MDR positive (MES-SA/DX5) cells were plated into 6 well dishes and treated with various concentrations of 6aa and Paclitaxel for 96 h. The number of viable cells from duplicate plates was determined by trypan blue exclusion. B. Soft Agar Assays. MIA-PaCa-2 cells (1.0×10^5) were plated in soft agar containing various concentrations of each compound in triplicates. After three weeks of growth, the plates were stained for 48 h using 0.05% nitroblue tetrazolium solution. Representative plates were photographed using an Olympus stereoscope mounted with a Sony digital camera system (DKC5000, Sony Inc).
The soft agar plates were prepared as described by Cosenza, et al (Cosenza, S. C. et al. In Cell Growth, Differentiation and Senescence, Studzinski, G. P., Ed.; Oxford University Press: 1999, 161-176.). Briefly, Noble bottom agar (0.8%) was plated onto 60 mm tissue culture plates. Exponentially growing MIA-PaCa-2 cells (1.0×10^5) were mixed with growth medium with various concentrations of each compound and mixed with Noble agar to a final concentration of 0.4%. Each concentration was plated in triplicate. The top agar was allowed to solidify and the plates were then incubated at 5% CO2 at 37° C. for 3 weeks. The plates were then stained with 0.05% nitroblue tetrazolium (NBT) solution and representative plates were photographed using an Olympus stereoscope mounted with a Sony digital camera system (DKC5000, Sony Inc).

[3] = tested on: BT20 human breast carcinoma xenograft; assay: Nude mouse xenograft assay
Method: Female athymic (NCr-nu/nu) mice were injected subcutaneously with 0.5-1×10^7 ER-negative human breast tumor cells (BT-20) in 0.2 mL of PBS and the tumors allowed to grow to a size of 100-150 mm^3 in size in about 14 days. The mice were then paired such that the pairs harbored equal sized tumors, which were then used to test the therapeutic effects of 6s and 6ab. A Of the pairs, the animals were treated with either 50 mg/kg 6s following a Q4D schedule or 25 mg/kg using a Q2D schedule or vehicle (DMSO) control. The tumor size was then measured on alternate days in two dimensions and the volume determined using either of the following equations: 1: V=(L×(S^2))π/6); where L is the longer and S is the shorter of the two measurements. B. 6ab was dissolved in PBS and was administered intravenously (50 mg/kg) through the tail vein on every alternate day. Tumor measurements were done as in materials and methods.
Female athymic (NCR-nu/nu, Taconic) nude mice were injected with 0.5-1.0×10^7 BT20 cells subcutaneously in the hind leg using a 1 mL tuberculin syringe equipped with a 271/2 gauge needle. Approximately 14 days later, mice were paired (N=8) and injected with 6ab or Phosphate buffered saline as the vehicle control. The intravenous injections were performed in the mouse tail vein using a 1 mL tuberculin syringe equipped with a 30 gauge needle. The animals were injected following a Q2D×3 schedule. Tumor measurements (two dimensions) were done three times per week using traceable digital vernier calipers (Fisher).

[4] = Acute and repeat toxicity studies in rats; assay type: in vivo; conditions: intravenous
Method: Single dose and repeat-dose (28 daily injections) toxicology studies were carried out with one water-soluble form of this series (6ab) to assess the safety of intravenously administered drug in rats.

[5] = Single dose and repeat-dose toxicology studies in mice; assay type: in vivo
[6] = tested on: DLD1 (human colorectal tumor cell line); assay: Cytotoxicity assay (trypan blue exclusion, 96 h), DLD1; assay type: cell-based; conditions: DLD1, 96 h treatment; read-out: DLD1 IC50
[7] = tested on: mantle cell lymphoma cell lines; conditions: Park et al Oncogene 2007; cited from earlier work
DU145 = assay: Soft agar colony formation, DU145; assay type: cell-based, human; conditions: DU145, dose dependent
[8] = tested on: BT20, DU145, H157 and DLD1 cell lines; assay: In vitro cytotoxicity, four human tumor cell lines (SAR discussion); assay type: cell-based; conditions: four human tumor cell lines
Method: A number of tumor cell lines were tested using a dose response end point assay system. The cells were grown in either DMEM or RPMI supplemented with 10% fetal bovine serum and 1 unit/mL Penicillin-Streptomycin solution. The tumor cells were plated into 6 well dishes at a cell density of 1.0×10^5 cells/mL/well and compounds were added 24 h later at various concentrations. Cell counts were determined from duplicate wells after 96 h of treatment. The total number of viable cells was determined by trypan blue exclusion.
Following the synthesis of this group of compounds, their in vitro cytotoxicity was assessed using four different human tumor cell lines derived from human breast (BT20), prostate (DU145), lung (H157) and colorectal (DLD1) cancers. […] In a majority of the compounds described here, a methoxy group was kept constant at the 4th position on the aromatic ring of the benzyl moiety.

[9] = tested on: BT20 (human breast tumor cell line); assay: Cytotoxicity assay (trypan blue exclusion, 96 h), BT20; assay type: cell-based; conditions: BT20, 96 h treatment
Excerpt: as §2

MES-SA = assay: Tumor cell killing, MES-SA (parental uterine sarcoma); assay type: cell-based, human; conditions: Homo sapiens; parental cell line MES-SA, 96 h dose response; read-out: IC50
Method: as §1, with “A.” for “FIG. 1 Anti-tumor effects of (E)-2,4,6-Trimethoxystyryl-3-Hydroxy-4-Methoxybenzyl Sulfone (6aa). A.”, “Inc). Tissue Culture and Reagents: […] Cell lines were purchased from ATCC. Cell lines were routinely grown in DMEM or RPM1 (CellGro) supplemented with 10% fetal bovine serum (Atlas) and 1 unit/mL penicillin-streptomycin (Gibco). A number of tumor cell lines were tested using a dose response end point assay system. The cells were grown in either DMEM or RPMI supplemented with 10% fetal bovine serum and 1 unit/mL Penicillin-Streptomycin solution. […] Cell counts were determined from duplicate wells after 96 h of treatment. The total number of viable cells was determined by trypan blue exclusion.” for “Inc).”

MES-SA/DX5 = assay: Tumor cell killing, MES-SA/DX5 (multidrug resistant subline); assay type: cell-based, human
Method: as §1, with “A.” for “FIG. 1 Anti-tumor effects of (E)-2,4,6-Trimethoxystyryl-3-Hydroxy-4-Methoxybenzyl Sulfone (6aa). A.”, “Inc). Tissue Culture and Reagents: […] Cell lines were purchased from ATCC. Cell lines were routinely grown in DMEM or RPM1 (CellGro) supplemented with 10% fetal bovine serum (Atlas) and 1 unit/mL penicillin-streptomycin (Gibco). A number of tumor cell lines were tested using a dose response end point assay system. The cells were grown in either DMEM or RPMI supplemented with 10% fetal bovine serum and 1 unit/mL Penicillin-Streptomycin solution. […] Cell counts were determined from duplicate wells after 96 h of treatment. The total number of viable cells was determined by trypan blue exclusion.” for “Inc).”

[10] = single dose and repeat-dose (28 daily injections)

In the case of “(E)-2,4,6-Trimethoxystyryl-3^1-O-phosphate disodium-4-methoxybenzyl Sulfone [6ab]”, the IC50 [1] is reported as 2.5 nM, the “growth of tumor cells in soft agar” value (BT20) is reported as “complete inhibition of the growth of tumor cells” and the IC50 [2] is reported as 7 nM. The “growth of tumor cells in soft agar” value (MIA-PaCa-2 cells; MIA-PaCa-2, dose dependent, three weeks) was “complete inhibition of the growth of tumor cells”, the “tumor growth in xenograft model” value ([3]; 50 mg/kg IV tail vein, alternate days, 21 days) was “readily inhibited tumor growth” and the “tumor volume response of the majority of the mice” value ([3]; 8 mice per group) was “growth arrest or a gradual reduction in their tumor volume”. For the same compound, the animal deaths ([3]; IV, Q2D×3 schedule) was “nor were there any animal deaths”, the body weight loss ([3]; IV, Q2D×3 schedule) was “Body weight loss of more than 10% was not observed” and the “drug levels in circulation” value [4] was “High dose dependent drug levels were sustained in circulation”. For the same compound, the “hematotoxicity, liver damage, neurotoxicity” value [4, 10] was “did not cause hematotoxicity (no myleosuppression), liver damage or any detectable neurotoxicity”, the “drug levels in circulation” value [5] was “High, dose dependent, drug levels were sustained in circulation” and the “hematotoxicity, liver damage, neurotoxicity” value [5, 10] was “did not cause hematotoxicity (no myleosuppression), liver damage or detectable neurotoxicity”. The IC50 [6] was 7 nM, the “effect on mantle cell lymphoma cell lines” value [7] was “altered the growth and cell cycle status” and the “growth of tumor cells in soft agar” value (DU145) was “complete inhibition of the growth of tumor cells”. The “water solubility” value (Water solubility) was “highly water-soluble”, the “cytotoxic activity, SAR statement” value [8] was “did not alter the potency” and the IC50 [9] was 5 nM.

In the case of `CC(=O)O[C@H]1C(=O)[C@@]2(C)[C@H]([C@H](OC(=O)c3ccccc3)[C@]3(O)C[C@H](OC(=O)[C@H](O)[C@@H](NC(=O)c4ccccc4)c4ccccc4)C(C)=C1C3(C)C)[C@]1(OC(C)=O)CO[C@@H]1C[C@@H]2O` [Paclitaxel, reference compound], the IC50 (MES-SA) is reported as 4 nM, the “potency in soft agar relative to 6aa and 6ab” value (MIA-PaCa-2 cells; positive control, FIG. 1b) is reported as “slightly lower potency” and the IC50 (MES-SA/DX5; Homo sapiens, MDR positive subline MES-SA/DX5, 96 h dose response, read-out: IC50) is reported as 750 nM. The “fold resistance of MDR positive subline versus parental cell line” value (MES-SA/DX5; MES-SA/DX5 vs MES-SA) was “greater than 100 fold”.
